Measured values from ChEMBL document CHEMBL5465560, “Selectivity Literature for EUbOPEN Chemogenomic Library” (2024).

Experiments:
[1] = biological target: Tyrosine-protein kinase BTK (Homo sapiens, UniProt Q06187); experiment: Selectivity interaction (Millipore kinase profiler) EUB0000124b BTK; settings: at 10 µM
[2] = biological target: T1, Tyrosine-protein kinase receptor TYRO3 (Homo sapiens) (UniProt Q06418); experiment: Selectivity interaction (Kinase screening (Nanosyn)) EUB0000604a TYRO3
T1 sequence (whole entry): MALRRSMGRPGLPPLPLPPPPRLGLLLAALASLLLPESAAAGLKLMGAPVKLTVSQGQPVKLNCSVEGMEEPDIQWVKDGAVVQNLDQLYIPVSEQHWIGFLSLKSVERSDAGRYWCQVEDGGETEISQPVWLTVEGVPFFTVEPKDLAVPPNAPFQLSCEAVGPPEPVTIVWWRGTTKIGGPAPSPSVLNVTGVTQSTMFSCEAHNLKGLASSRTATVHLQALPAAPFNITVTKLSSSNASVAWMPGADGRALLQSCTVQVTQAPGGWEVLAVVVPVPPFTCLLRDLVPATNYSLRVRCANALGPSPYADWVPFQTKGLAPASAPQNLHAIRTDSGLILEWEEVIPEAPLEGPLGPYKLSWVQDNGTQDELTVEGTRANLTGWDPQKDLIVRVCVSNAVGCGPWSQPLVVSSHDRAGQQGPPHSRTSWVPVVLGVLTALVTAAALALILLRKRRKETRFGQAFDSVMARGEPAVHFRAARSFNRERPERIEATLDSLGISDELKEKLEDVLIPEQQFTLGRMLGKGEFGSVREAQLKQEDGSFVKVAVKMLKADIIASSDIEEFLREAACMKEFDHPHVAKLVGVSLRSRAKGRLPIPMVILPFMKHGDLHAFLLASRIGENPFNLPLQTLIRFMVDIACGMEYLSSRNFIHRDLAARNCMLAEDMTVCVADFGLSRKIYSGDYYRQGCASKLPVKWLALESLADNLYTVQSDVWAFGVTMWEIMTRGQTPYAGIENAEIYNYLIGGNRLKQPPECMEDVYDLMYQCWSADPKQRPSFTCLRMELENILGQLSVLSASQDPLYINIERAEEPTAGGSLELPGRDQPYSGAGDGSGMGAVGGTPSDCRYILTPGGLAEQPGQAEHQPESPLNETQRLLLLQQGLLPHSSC

[3] = biological target: Serine/threonine-protein kinase 24 (Homo sapiens) (UniProt Q9Y6E0); experiment: Selectivity interaction (KinomeScan (DiscoverX)) EUB0001049a STK24; settings: at 1 µM
Sequence of Serine/threonine-protein kinase 24 (Homo sapiens) (Q9Y6E0 whole entry, looked up): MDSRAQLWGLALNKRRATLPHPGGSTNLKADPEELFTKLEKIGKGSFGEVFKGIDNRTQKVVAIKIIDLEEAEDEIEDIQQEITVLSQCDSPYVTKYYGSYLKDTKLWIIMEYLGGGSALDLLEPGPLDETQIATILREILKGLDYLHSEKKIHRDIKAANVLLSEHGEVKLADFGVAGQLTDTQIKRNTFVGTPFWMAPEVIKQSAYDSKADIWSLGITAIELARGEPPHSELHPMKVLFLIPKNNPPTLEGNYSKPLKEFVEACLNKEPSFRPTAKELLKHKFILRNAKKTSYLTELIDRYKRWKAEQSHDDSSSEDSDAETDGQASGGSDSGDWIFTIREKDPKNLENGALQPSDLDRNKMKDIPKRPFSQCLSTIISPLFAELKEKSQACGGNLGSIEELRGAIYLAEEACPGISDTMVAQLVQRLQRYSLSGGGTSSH

[4] = biological target: Macrophage colony-stimulating factor 1 receptor (Homo sapiens) (UniProt P07333); experiment: Selectivity interaction (Ambit KINOMEscan and KiNATiv profiling in Jurkat cells) EUB0000090b CSF1R; type: cell-based; settings: at 1 µM
[5] = biological target: Microtubule-associated serine/threonine-protein kinase 2 (Homo sapiens) (UniProt Q6P0Q8); experiment: Selectivity interaction (ActivX KiNativ screen (kinase selectivity in THP-1 cell lysates)) EUB0000639a MAST2; type: subcellular; settings: lysate
Sequence of Microtubule-associated serine/threonine-protein kinase 2 (Homo sapiens) (Q6P0Q8 whole entry): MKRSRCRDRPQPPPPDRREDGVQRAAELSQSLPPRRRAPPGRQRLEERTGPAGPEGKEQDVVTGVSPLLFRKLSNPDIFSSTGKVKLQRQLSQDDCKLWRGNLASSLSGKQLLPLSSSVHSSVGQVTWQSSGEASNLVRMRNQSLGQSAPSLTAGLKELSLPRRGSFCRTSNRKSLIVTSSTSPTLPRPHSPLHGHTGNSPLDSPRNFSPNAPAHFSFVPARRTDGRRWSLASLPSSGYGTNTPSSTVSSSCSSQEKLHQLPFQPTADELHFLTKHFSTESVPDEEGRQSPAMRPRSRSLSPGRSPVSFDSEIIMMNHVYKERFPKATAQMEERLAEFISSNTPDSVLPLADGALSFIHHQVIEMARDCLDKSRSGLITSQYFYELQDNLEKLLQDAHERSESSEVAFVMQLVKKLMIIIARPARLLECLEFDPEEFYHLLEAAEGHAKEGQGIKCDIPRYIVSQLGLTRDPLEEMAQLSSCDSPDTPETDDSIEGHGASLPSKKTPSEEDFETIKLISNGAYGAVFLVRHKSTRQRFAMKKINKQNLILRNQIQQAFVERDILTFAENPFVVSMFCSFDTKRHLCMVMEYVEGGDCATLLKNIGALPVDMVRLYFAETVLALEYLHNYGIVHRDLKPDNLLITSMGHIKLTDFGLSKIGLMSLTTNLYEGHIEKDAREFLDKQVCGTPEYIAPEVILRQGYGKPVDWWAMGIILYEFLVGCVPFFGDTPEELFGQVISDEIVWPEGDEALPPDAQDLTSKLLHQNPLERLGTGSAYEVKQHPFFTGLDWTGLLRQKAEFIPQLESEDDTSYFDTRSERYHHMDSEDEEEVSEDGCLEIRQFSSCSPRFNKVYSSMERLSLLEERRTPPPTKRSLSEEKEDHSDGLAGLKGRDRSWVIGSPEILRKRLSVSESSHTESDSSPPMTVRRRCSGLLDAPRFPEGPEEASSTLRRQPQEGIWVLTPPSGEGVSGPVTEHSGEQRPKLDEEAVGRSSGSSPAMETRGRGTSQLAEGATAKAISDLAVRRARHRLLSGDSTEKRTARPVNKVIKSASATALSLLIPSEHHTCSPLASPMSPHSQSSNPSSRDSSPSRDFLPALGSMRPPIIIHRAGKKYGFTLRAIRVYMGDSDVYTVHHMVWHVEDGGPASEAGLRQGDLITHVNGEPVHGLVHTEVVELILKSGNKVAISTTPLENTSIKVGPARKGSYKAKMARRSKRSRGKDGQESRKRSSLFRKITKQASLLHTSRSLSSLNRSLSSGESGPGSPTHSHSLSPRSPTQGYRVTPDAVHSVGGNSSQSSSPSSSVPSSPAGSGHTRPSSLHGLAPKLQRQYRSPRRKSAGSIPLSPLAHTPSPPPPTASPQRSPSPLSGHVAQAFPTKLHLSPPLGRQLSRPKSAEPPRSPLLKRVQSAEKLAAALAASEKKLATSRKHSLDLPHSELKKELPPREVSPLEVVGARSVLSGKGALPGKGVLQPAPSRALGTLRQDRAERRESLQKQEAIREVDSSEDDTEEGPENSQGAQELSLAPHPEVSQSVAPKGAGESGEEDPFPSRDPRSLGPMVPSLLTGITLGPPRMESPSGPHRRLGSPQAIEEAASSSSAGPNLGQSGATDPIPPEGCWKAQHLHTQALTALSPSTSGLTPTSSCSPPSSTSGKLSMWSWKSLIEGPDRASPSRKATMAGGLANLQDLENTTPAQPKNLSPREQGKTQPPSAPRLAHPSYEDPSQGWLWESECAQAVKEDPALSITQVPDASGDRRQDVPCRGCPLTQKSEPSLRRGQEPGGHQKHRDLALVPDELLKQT

[6] = biological target: Mitogen-activated protein kinase 11 (Homo sapiens) (UniProt Q15759); experiment: Selectivity interaction (Kinase panel (Z-LYTE Assay)) EUB0001632a MAPK11; settings: at 10 µM
Sequence of Mitogen-activated protein kinase 11 (Homo sapiens) (Q15759 whole entry): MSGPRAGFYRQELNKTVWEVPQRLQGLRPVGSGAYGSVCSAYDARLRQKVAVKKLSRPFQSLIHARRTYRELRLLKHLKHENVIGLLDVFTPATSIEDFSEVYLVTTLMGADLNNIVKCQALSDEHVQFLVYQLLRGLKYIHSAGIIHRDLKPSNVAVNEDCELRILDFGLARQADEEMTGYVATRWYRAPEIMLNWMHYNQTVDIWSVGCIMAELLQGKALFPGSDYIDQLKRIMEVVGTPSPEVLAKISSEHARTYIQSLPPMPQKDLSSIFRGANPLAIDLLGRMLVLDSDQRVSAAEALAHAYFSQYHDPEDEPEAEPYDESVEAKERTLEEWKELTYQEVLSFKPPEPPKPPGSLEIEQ

[7] = biological target: P2Y purinoceptor 2 (Homo sapiens) (UniProt P41231); experiment: Selectivity interaction (Eurofins CEREP Diversity Profile (receptors and ion channels)) EUB0000279b P2RY2; settings: at 10 µM
[8] = biological target: Serine/threonine-protein kinase pim-1 (Homo sapiens, UniProt P11309); experiment: Selectivity interaction (ProQinase) EUB0000171b PIM1
Sequence of Serine/threonine-protein kinase pim-1 (P11309 whole entry, looked up): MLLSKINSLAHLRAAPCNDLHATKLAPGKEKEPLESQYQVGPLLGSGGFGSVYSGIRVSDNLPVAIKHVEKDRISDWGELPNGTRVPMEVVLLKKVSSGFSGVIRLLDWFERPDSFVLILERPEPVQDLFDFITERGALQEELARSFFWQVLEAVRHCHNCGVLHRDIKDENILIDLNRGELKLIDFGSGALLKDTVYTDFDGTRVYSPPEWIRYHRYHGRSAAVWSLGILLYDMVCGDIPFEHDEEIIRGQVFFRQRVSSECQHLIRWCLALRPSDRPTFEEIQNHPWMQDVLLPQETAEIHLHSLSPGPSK

[9] = biological target: Proto-oncogene tyrosine-protein kinase receptor Ret (Homo sapiens, UniProt P07949); experiment: (§1) Selectivity interaction (KinomeScan (DiscoverX)) EUB0000655a RET; settings: at 10 µM
Sequence of Proto-oncogene tyrosine-protein kinase receptor Ret (P07949 whole entry): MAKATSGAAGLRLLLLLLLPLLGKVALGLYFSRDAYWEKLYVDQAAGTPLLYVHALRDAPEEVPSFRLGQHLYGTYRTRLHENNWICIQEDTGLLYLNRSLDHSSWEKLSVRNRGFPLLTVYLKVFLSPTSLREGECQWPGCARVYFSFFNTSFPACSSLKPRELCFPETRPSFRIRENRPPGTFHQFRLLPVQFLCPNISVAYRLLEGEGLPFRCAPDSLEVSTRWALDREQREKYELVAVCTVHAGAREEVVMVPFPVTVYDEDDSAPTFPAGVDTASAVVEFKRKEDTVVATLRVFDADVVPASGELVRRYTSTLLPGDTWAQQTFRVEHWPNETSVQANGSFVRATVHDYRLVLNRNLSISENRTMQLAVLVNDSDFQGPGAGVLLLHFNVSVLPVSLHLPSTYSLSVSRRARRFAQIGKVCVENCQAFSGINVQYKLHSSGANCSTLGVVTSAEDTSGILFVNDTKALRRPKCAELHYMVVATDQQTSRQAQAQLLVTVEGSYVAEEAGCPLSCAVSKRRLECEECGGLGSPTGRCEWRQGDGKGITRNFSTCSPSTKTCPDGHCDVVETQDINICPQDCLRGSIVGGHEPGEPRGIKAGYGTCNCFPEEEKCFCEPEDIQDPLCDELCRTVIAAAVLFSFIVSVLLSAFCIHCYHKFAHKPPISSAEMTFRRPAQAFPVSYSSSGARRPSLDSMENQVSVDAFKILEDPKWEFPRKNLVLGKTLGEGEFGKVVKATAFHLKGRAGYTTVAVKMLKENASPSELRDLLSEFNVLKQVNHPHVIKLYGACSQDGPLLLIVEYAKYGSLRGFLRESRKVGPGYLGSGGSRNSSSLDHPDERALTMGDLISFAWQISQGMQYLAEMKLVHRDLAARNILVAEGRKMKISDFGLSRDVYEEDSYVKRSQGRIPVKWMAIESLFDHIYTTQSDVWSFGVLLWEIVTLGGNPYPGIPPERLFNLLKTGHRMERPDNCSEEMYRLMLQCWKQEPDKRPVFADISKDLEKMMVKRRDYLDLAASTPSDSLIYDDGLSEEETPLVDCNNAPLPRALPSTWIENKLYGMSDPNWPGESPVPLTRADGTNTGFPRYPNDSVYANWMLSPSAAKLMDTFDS

[10] = tested on: Proto-oncogene tyrosine-protein kinase receptor Ret (Homo sapiens), P07949 [V804M]; experiment: as §1; settings: at 10 µM
Sequence of Proto-oncogene tyrosine-protein kinase receptor Ret (Homo sapiens), P07949 [V804M] (P07949 whole entry V804M): as the sequence (P07949 whole entry) above, with V804M counted along it

[11] = tested on: Proto-oncogene tyrosine-protein kinase receptor Ret (Homo sapiens), P07949 [M918T]; experiment: as §1; settings: at 10 µM
Sequence of Proto-oncogene tyrosine-protein kinase receptor Ret (Homo sapiens), P07949 [M918T] (P07949 whole entry M918T): as the sequence (P07949 whole entry) above, with M918T counted along it

[12] = tested on: Proto-oncogene tyrosine-protein kinase receptor Ret (Homo sapiens), P07949 [V804L]; experiment: as §1; settings: at 10 µM
Sequence of Proto-oncogene tyrosine-protein kinase receptor Ret (Homo sapiens), P07949 [V804L] (P07949 whole entry V804L): as the sequence (P07949 whole entry) above, with V804L counted along it

[13] = biological target: T2, Serine/threonine-protein kinase LATS1 (Homo sapiens) (UniProt O95835); experiment: Selectivity interaction (KinomeScan (DiscoverX)) EUB0000618a LATS1; settings: at 10 µM
T2 sequence (whole entry): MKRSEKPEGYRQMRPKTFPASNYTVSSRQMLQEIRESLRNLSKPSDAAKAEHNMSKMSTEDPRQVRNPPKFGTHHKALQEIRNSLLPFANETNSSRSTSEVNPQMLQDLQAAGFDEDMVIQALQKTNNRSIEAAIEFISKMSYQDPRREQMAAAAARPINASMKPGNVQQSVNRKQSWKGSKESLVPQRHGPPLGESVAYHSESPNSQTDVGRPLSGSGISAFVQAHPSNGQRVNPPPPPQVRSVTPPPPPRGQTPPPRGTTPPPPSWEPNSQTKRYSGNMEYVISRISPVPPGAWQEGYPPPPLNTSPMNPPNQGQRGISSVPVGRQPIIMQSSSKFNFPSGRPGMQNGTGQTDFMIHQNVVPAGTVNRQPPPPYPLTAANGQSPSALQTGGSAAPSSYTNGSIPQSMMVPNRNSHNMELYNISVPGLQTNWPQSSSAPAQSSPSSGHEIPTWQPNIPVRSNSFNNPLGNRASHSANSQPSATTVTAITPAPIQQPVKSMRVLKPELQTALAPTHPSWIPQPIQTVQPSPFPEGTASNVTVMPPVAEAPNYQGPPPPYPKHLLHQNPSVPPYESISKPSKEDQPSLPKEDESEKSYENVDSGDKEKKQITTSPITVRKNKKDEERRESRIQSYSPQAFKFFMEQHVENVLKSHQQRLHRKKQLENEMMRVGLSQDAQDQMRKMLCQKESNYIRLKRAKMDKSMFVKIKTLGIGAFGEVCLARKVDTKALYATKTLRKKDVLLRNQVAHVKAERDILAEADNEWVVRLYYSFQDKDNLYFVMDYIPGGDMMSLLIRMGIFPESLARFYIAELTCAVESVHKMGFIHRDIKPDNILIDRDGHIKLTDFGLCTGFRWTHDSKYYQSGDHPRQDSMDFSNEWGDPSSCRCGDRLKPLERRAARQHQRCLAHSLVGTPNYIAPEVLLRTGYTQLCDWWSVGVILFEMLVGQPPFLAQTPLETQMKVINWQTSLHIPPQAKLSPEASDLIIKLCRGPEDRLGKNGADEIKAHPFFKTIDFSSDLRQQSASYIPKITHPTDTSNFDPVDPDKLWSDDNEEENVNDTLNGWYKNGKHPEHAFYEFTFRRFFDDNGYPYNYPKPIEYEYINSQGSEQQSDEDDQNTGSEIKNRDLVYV

Sequence of Tyrosine-protein kinase BTK (Q06187 whole entry): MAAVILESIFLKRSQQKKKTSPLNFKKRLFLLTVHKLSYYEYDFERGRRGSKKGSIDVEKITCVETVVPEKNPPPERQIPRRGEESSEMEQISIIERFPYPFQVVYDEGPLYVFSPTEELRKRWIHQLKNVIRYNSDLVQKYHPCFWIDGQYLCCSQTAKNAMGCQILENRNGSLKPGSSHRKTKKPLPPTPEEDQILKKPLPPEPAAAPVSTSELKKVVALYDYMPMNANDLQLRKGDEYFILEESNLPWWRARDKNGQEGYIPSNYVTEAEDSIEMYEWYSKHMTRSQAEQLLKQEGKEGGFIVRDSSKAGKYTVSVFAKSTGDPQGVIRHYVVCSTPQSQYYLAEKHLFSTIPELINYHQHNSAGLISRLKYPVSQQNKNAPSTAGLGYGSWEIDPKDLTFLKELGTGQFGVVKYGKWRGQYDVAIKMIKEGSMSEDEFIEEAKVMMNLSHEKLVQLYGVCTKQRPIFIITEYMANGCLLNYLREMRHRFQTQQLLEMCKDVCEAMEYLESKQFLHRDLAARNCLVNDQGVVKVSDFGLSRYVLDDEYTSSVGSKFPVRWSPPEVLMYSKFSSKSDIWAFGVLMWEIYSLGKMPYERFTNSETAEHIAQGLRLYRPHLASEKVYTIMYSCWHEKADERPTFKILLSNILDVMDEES

## CC(=O)Nc1cccc(-n2c(=O)n(C3CC3)c(=O)c3c(Nc4ccc(I)cc4F)n(C)c(=O)c(C)c32)c1
[1]
  % of control: 104%

## Cc1cnc(Nc2ccc(F)cc2Cl)nc1-c1c[nH]c(C(=O)N[C@H](CO)c2cccc(Cl)c2)c1
[2]
  % of inhibition: 0%

## COc1cc(Nc2nc(C)cc(-c3cnn4nc(OC)ccc34)n2)cc(C(F)(F)F)c1
[3]
  % of control: 76%

## CN(C)C/C=C/C(=O)Nc1ccc(C(=O)N2CCCC(Nc3ncc(Cl)c(-c4c[nH]c5ccccc45)n3)C2)cc1 (stereo not drawn)
[4]
  % of control: 86%

## CC[C@@H]1[C@H](F)C(=O)N[C@@H]1COc1nccc2cc(C(N)=O)c(OC)cc12 [ZIMLOVISERTIB]
[5]; at 0.01 µM
  % of inhibition: -0.4%
[5]; at 0.04 µM
  % of inhibition: -2.4%
[5]; at 0.2 µM
  % of inhibition: -2.5%
[5]; at 1 µM
  % of inhibition: -1.4%
[5]; at 5 µM
  % of inhibition: -30.3%

## Cn1cc(-n2cnc3c(NCc4nc5cc(Cl)c(Cl)cc5[nH]4)nc(N4CCOCC4)nc32)cn1
[6]
  % of control: 1.54%

## CC(=O)c1cc(-c2ccccc2OCC2CC2)c2ncccn12
[7]
  % of control: 84%

## C=CC(=O)Nc1cccc(C(=O)Nc2ccc(Nc3cc(-c4[nH]c(SC)nc4C)ccn3)cc2)c1
[8]; at 1 µM
  % of control: 87%
[8]; at 5 µM
  % of control: 67%

## CN(C)CCOc1ccc(-c2nc(-c3ccncc3)c(-c3ccc4c(c3)CC/C4=N\O)[nH]2)cc1
[9]
  % of control: 100%
[10]
  % of control: 92%
[11]
  % of control: 88%
[12]
  % of control: 100%

## O[C@H]1CC[C@H](Nc2ncc3nc(Nc4c(F)cc(F)cc4F)n([C@H]4CCOC4)c3n2)CC1
[13]
  % of control: 100%
